We go through three molecules from patent US9895077B2, “Method for diagnosing a brain related disorder using brain network activity patterns” (Elminda Ltd., priority 2010, dated 2018).

Structures are written as SMILES.

Common to all, as to format: in vivo, human
One assay concerns ADHD subjects. As to the kind of experiment: BNA pattern similarity from EEG data of ADHD subjects before and following treatment with MPH. An excerpt: The BNA patterns shown in FIGS. 6A-D are associated subject-specific BNA patterns constructed from EEG data recorded from a particular ADHD subject. The black dots in FIGS. 6A-D show the locations of the EEG electrodes. The color codes in these BNA patterns are the same as defined above. The subject-specific BNA patterns shown in FIGS. 6A-B describe the association of the ADHD subject to a group of untreated ADHD subjects, and the BNA patterns shown in FIGS. 6C-D describe the association of the ADHD subject to a group of ADHD subjects all treated with methylphenidate (MPH). The subject-specific BNA patterns shown in FIGS. 6A and 6C are based on EEG data recorded from the ADHD subject before any treatment, and subject-specific BNA patterns shown in FIGS. 6B and 6D are based on EEG data recorded from the ADHD subject following a treatment with MPH.
The baseline annotated BNA pattern constructed from the group of untreated ADHD subjects, and the baseline annotated BNA pattern constructed from the same group of subjects, but following treatment with MPH are shown in FIGS. 6E and 6F, respectively.
A BNA pattern similarity was calculated for each of the subject-specific BNA patterns shown in FIGS. 6A-D. The calculated similarity corresponding to the BNA pattern of FIG. 6A is 0.73, the calculated similarity corresponding to the BNA pattern of FIG. 6B is 0.19, the calculated similarity corresponding to the BNA pattern of FIG. 6C is 0.56, and the calculated similarity corresponding to the BNA pattern of FIG. 6D is 0.6.
The BNA patterns shown in FIGS. 7A-D were constructed from EEG data recorded from a different ADHD subject, which was also treated with MPH according to the same protocol as described above with respect to the responder subject of FIGS. 6A-D. The black dots in FIGS. 7A-D show the locations of the EEG electrodes, and the color codes in these BNA patterns is the same as defined above. Thus, the subject-specific BNA patterns shown in FIGS. 7A-B describe the association of the ADHD subject to a group of untreated ADHD subjects, and the BNA patterns shown in FIGS. 7C-D describe the association of the ADHD subject to a group of ADHD subjects all treated with methylphenidate (MPH). The subject-specific BNA patterns shown in FIGS. 7A and 7C are based on EEG data recorded from the ADHD subject before any treatment, and subject-specific BNA patterns shown in FIGS. 7B and 7D are based on EEG data recorded from the ADHD subject following a treatment with MPH.
A BNA pattern similarity was calculated for each of the subject-specific BNA patterns shown in FIGS. 7A-D. The calculated similarity corresponding to the BNA pattern of FIG. 7A is 0, the calculated similarity corresponding to the BNA pattern of FIG. 7B is 0, the calculated similarity corresponding to the BNA pattern of FIG. 7C is 0.06, and the calculated similarity corresponding to the BNA pattern of FIG. 7D is 0.

The subject of assay [1] is healthy volunteer subjects. The assay is described as follows: BNA pattern analysis of EEG data during working memory test (encoding/retrieval), drug vs placebo. The following applies: for effect on central and frontal activation in group BNA pattern / effect on fronto-parietal part / connectivity of group BNA pattern: group BNA patterns (FIGS. 10C-D, 10G-H) vs placebo.
The test system of assay [2] is healthy volunteer subjects. As to the kind of experiment: BNA pattern analysis of EEG data during auditory oddball task, scopolamine vs placebo. As to conditions: for BNA pattern similarity to placebo group baseline BNA pattern: following scopolamine, oddball task. An excerpt:
FIGS. 8A-D show associated subject-specific BNA patterns constructed from EEG data recorded from two healthy volunteer subjects. The black dots in FIGS. 8A-D show the locations of the EEG electrodes, and the color codes in these BNA patterns are the same as defined above. The subject-specific BNA patterns shown in FIGS. 8A-D describe the association of the subjects to a group of healthy subjects following treatment with a placebo drug and while performing an attention task related oddball task.
FIGS. 8A and 8C are subject-specific BNA patterns constructed from EEG data collected from a first subject (FIG. 8A) and a second subject (FIG. 8C) following treatment with a placebo, and FIGS. 8B and 8D are subject-specific BNA patterns constructed from EEG data collected from the first subject (FIG. 8B) and the second subject (FIG. 8D) following treatment with a scopolamine drug. Scopolamine is an anticholinergic drug with inhibitory effect on M2-cholinergic receptors of excited type. It has an inhibitory effect on the cerebral cortex, typically inducing slight-anesthetic effect.
All subjects were administered with Scopolamine 0.4 mg, and Saline serving as a placebo drug, on consecutive days, in a randomized order.
In the auditory oddball target detection test, the subjects were requested to respond to auditory target stimuli that occur infrequently and irregularly within a series of standard stimuli. The standard stimulus was in the form of a 1000 Hz tone, and the target stimulus was in the form of a 2000 Hz tone. The intervals between two successive stimuli (standard or target) were 1.5 seconds. Each subject was exposed to a series of stimuli, of which 80% were standard stimuli and 10% were target stimuli. The additional 10% were background sounds (referred to as “novel stimuli”).
All subjects underwent EEG recordings during the tests. ERPs were recorded using 64 Ag—AgCl active electrodes (ActiveTwo, Biosemi) attached to the scalp by located according to the 10-20 international system, and filled with a conducting gel (Signa, Parker).
Two group BNA patterns (one BNA pattern for the placebo group and one BNA pattern for the scopolamine group), and several subject-specific BNA patterns were constructed according to the teachings of the present embodiments as described in Example 1 above. The similarities between the subject-specific BNA pattern and the group BNA patterns were calculated as described in Example 1 above, except for the following provisions on data selection.
Two types of group BNA patterns were constructed in this example. A first type, referred to herein as a DIFF BNA pattern, described the activity that most differentiated between two groups or two conditions. In this type, data features that appeared in at least 11 subjects out of a maximum number of 15 subjects in one group, but a difference threshold (the number of subjects that had the pattern in one group minus the number of subjects that had the pattern in the other group) of 2 subjects, was used to construct the BNA pattern. […] The SI quantities for this type of BNA patterns were calculated as described in Example 1 above.

Assay [3] deals with healthy volunteer subjects. The assay is described as follows: Clinical observation of behavioral endpoint following treatment with scopolamine. The protocol: A BNA pattern similarity was calculated for each of the subject-specific BNA patterns shown in FIGS. 8A-D. The calculated similarities are 0.937, 0.079, 1.0 and 0.94, respectively. It is recognized by the present inventors that these similarity values indicate that the responsivity to scopolamine is high for the first subject (FIGS. 8A and 8B) and low for the second subject (FIGS. 8C and 8D).

Take `COC(=O)C(c1ccccc1)C1CCCCN1` (stereo not shown) [MPH, methylphenidate]: the entries for the “responsiveness of the subject to the treatment, as indicated by similarity values” with ADHD subjects (ADHD subject of FIGS. 6A-D) and in the assay with ADHD subjects (ADHD subject of FIGS. 7A-D) were “responsive to the treatment” and “not responsive to the treatment”, respectively. The “BNA pattern similarity to the baseline BNA pattern for the untreated ADHD group” value in the assay with ADHD subjects (ADHD subject of FIGS. 6A-D (FIG. 6B), following a single dose treatment with MPH, before treatment 0.73) was 0.19. Also, the “BNA pattern similarity to the baseline BNA pattern for the treated ADHD group” value in the assay with ADHD subjects (ADHD subject of FIGS. 6A-D (FIG. 6D), following a single dose treatment with MPH, before treatment 0.56) is 0.6. The “BNA pattern similarity to the group of untreated ADHD subjects” value in the assay with ADHD subjects (different ADHD subject of FIGS. 7A-D (FIG. 7B), following treatment with MPH, before treatment 0) is reported as 0. The “BNA pattern similarity to the group of ADHD subjects treated with MPH” value in the assay on ADHD subjects (different ADHD subject of FIGS. 7A-D (FIG. 7D), following treatment with MPH, before treatment 0.06) is listed as 0.

On to `CNC1(c2ccccc2Cl)CCCCC1=O` (stereo not shown) [ketamine], for which, in assay [1] (working memory test), the “effect on central and frontal activation in group BNA pattern” value is “increased central and frontal activation”; the “effect on fronto-parietal part / connectivity of group BNA pattern” value was “No significant change”. Moreover, in assay [1] (working memory test, group BNA patterns (FIGS. 10G-H) vs placebo), the “effect on right lateralization in group BNA pattern” value was “decreased right lateralization”.

For `CN1[C@@H]2C[C@@H](OC(=O)[C@H](CO)c3ccccc3)C[C@H]1[C@@H]1O[C@@H]12` [scopolamine], the “BNA pattern similarity to placebo group baseline BNA pattern” value in assay [2] (first healthy subject (FIG. 8B), after placebo 0.937) worked out at 0.079; in assay [2] (second healthy subject (FIG. 8D), after placebo 1.0), 0.94. Further, the “responsivity to scopolamine, as indicated by similarity values” in assay [2] (first subject (FIGS. 8A and 8B)) is given as “high”; in assay [2] (second subject (FIGS. 8C and 8D)) it was “low”. Besides, the “number of scopolamine subjects fulfilling the placebo pattern” value in assay [2] (oddball test, detection of novel stimuli, Delta frequency pattern (FIGS. 29A-D), 14 in placebo group) is recorded as 0 subjects; in assay [2] (oddball test, detection of target stimuli, Delta frequency pattern (FIGS. 27A-D), Scopolamine 0.4 mg, 15 subjects, 12 in placebo group) it was 4 subjects. The “number of subjects in the scopolamine group showing the scopolamine pattern (group-subject value)” value in assay [2] (oddball test, detection of target stimuli, Beta (12-18 Hz) pattern (FIGS. 28A-C), Scopolamine 0.4 mg, 15 subjects, 1 placebo subject) is recorded as 12 subjects. Moreover, the pattern differentiation level in assay [2] (placebo pattern, detection of novel stimuli (FIGS. 29A-D), placebo vs scopolamine group) was found to be 14; in assay [2] (placebo pattern, detection of target stimuli (FIGS. 27A-D), placebo vs scopolamine group), 8; in assay [2] (scopolamine pattern, detection of target stimuli (FIGS. 28A-C), scopolamine vs placebo group), 11; in assay [1] (encoding placebo DIFF BNA pattern, placebo vs scopolamine group), 11; in assay [1] (encoding scopolamine DIFF BNA pattern, scopolamine vs placebo group) it was 10; in assay [1] (retrieval placebo DIFF BNA pattern, placebo vs scopolamine group), 13. The same molecule came in with a pattern differentiation level in assay [1] (retrieval scopolamine DIFF BNA pattern, scopolamine vs placebo group) of 14. Also, in assay [3] (first subject), the “decrease in behavioral endpoint” value turned out to be 70%. Also, in assay [3] (second subject), the “change in behavioral endpoint” value is reported as “no change”. In addition, in assay [1] (working memory test, encoding process (FIGS. 10A, 32-34), 13 in placebo group), the “number of scopolamine subjects fulfilling the encoding placebo DIFF BNA pattern” value is given as “Two”. Also, the “number of subjects in the scopolamine group showing the encoding scopolamine DIFF BNA pattern (group-subject value)” value in assay [1] (working memory test, encoding process (FIGS. 10C, 35A-B), three placebo subjects) stood at 13 subjects. Besides, the “effect on central and frontal activation in group BNA pattern” value in assay [1] (working memory test) is “extensive compensatory central and frontal activation”. In addition, the “effect on fronto-parietal part / connectivity of group BNA pattern” value in assay [1] (working memory test) was “low connectivity between frontal and parietal regions”. Moreover, the “number of scopolamine subjects fulfilling the retrieval placebo DIFF BNA pattern” value in assay [1] (working memory test, retrieval process (FIGS. 10B, 30A-C), 14 in placebo group) is listed as “One”. Further, the “number of subjects in the scopolamine group showing the retrieval scopolamine DIFF BNA pattern (group-subject value)” value in assay [1] (working memory test, retrieval process (FIGS. 10D, 31A-E), one placebo subject) came to 15 subjects.
